The values below come from patent publication US10123993B2, “Cyclic ureas as inhibitors of rock” (BRISTOL-MYERS SQUIBB COMPANY, priority 2015, dated 2018).

The target of the assay is ROCK2 (Homo sapiens, UniProt O75116). The assay can be described thus: ROCK2 kinase inhibition assay (Caliper LABCHIP, FITC peptide substrate). The conditions noted are these: 5 μM ATP, 1.5 μM peptide substrate; value ranges. The class given is biochemical. In a few lines: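 Dose-response curves gave IC50 from inhibition of peptide phosphorylation, measured by LabChip separation after EDTA stop. Reactions used 1.5 μM FITC-labelled peptide, 5 μM ATP, 20 mM HEPES pH 7.5 with MgCl2, Brij-35, DTT, and under 2% DMSO.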
Sequence of ROCK2 (O75116 whole entry, species assumed): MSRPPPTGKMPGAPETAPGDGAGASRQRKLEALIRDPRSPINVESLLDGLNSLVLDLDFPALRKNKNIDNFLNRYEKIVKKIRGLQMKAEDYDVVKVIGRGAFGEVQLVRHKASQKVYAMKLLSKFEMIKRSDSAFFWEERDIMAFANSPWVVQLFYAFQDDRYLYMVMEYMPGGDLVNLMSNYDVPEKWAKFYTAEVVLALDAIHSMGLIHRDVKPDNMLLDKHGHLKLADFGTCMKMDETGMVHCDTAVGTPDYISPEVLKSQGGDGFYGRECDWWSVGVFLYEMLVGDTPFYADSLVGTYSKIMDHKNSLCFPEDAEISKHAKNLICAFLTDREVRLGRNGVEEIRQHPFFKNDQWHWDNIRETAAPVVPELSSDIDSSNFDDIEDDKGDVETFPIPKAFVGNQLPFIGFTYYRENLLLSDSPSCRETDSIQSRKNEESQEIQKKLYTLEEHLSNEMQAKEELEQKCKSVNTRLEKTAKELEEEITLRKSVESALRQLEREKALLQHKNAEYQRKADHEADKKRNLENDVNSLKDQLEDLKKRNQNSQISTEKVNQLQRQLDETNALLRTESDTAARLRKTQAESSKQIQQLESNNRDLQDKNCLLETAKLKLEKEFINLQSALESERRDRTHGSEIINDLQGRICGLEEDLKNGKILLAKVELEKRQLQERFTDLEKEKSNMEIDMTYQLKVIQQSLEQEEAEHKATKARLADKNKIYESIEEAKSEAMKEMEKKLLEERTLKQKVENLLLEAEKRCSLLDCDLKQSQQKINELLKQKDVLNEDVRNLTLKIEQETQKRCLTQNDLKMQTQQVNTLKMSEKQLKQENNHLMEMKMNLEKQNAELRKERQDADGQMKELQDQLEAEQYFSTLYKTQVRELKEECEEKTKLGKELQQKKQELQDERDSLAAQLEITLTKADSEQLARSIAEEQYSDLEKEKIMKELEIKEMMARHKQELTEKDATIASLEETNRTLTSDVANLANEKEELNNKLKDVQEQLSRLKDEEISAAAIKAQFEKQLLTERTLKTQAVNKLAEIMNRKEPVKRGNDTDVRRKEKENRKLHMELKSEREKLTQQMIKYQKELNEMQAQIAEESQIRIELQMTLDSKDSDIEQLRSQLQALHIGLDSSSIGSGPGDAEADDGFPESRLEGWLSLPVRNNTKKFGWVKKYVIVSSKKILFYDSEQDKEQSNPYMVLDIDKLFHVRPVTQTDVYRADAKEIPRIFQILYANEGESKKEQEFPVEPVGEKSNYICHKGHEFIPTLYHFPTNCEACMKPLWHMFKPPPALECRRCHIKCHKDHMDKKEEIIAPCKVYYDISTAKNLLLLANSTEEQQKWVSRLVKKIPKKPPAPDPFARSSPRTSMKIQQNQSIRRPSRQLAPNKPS
One may read the IC50 as the point on the concentration scale where inhibition reaches its midpoint. Low readings indicate higher potency, high ones lower potency. Molecule `CNC(=O)C(c1cccc(OC)c1)N1CCN(c2ccc(-c3cn[nH]c3)cc2)C1=O` (single isomer, unassigned) [Example 292, 2-(3-(4-(1H-pyrazol-4-yl)phenyl)-2-oxoimidazolidin-1-yl)-2-(3-methoxyphenyl)-N-methylacetamide] came in with an IC50 of 2.1 to 20 nM.

The molecule `COc1cc(C(C)n2ccn(-c3ccc(-c4cn[nH]c4)cc3)c2=O)ccc1F` (single isomer, unassigned) [Example 392, 1-(4-(1H-pyrazol-4-yl)phenyl)-3-(1-(4-fluoro-3-methoxyphenyl)ethyl)-1H-imidazol-2(3H)-one] registered an IC50 of 200 to 2000 nM.

The molecule `COc1cccc(CN2C(=O)N(c3ccc(-c4cn[nH]c4)cc3)CC2(C)C)c1` [Example 137, 1-(4-(1H-Pyrazol-4-yl)phenyl)-3-(3-methoxybenzyl)-4,4-dimethylimidazolidin-2-one] displayed an IC50 of under 2 nM.

Molecule `COc1cccc(CN2CCN(c3ccc(-c4ccnc5[nH]ccc45)cc3)C2=O)c1` [Example 65, 1-(4-(1H-Pyrrolo[2,3-b]pyridin-4-yl)phenyl)-3-(3-methoxybenzyl)imidazolidin-2-one] gave a 50% inhibitory concentration (IC50) of 2.1 to 20 nM.

The molecule `COc1cccc(CN2CCN(c3ccc(-c4ccnc(F)c4)cc3)C2=O)c1` [Example 54, 1-(4-(2-fluoropyridin-4-yl)phenyl)-3-(3-methoxybenzyl)imidazolidin-2-one] displayed an IC50 of 20.1 to 200 nM.

The molecule `CCc1cc(N2CC(C)(C)N(Cc3cccc(OC)c3)C2=O)ccc1-c1cn[nH]c1` [Example 148, 1-(3-ethyl-4-(1H-pyrazol-4-yl)phenyl)-3-(3-methoxy-benzyl)-4,4-dimethyl-imidazolidin-2-one] displayed an IC50 of 2.1 to 20 nM.

Turning to `COc1cccc(CN2CCN(c3cc(OC)c(-c4cn[nH]c4)cn3)C2=O)c1` [Example 423, 1-(4-Methoxy-5-(1H-pyrazol-4-yl)pyridin-2-yl)-3-(3-methoxybenzyl)imidazolidin-2-one], the IC50 was 2.1 to 20 nM.

With `COc1cccc(CN2CC(CO)N(c3ccc(-c4cn[nH]c4)cc3)C2=O)c1` (single isomer, unassigned) [Example 126, 3-(4-(1H-Pyrazol-4-yl)phenyl)-4-(hydroxymethyl)-1-(3-methoxybenzyl)imidazolidin-2-one], the IC50 lay in the range of 20.1 to 200 nM.

Take `COc1cc(N2CCN(Cc3c(F)cccc3F)C2=O)ccc1-c1cn[nH]c1` [Example 16, 1-(2,6-Difluorobenzyl)-3-(3-methoxy-4-(1H-pyrazol-4-yl)phenyl)imidazolidin-2-one]: the IC50 fell in the range of 20.1 to 200 nM.

With `CC(c1ccccc1)n1ccn(-c2ccc(-c3cn[nH]c3)cc2)c1=O` (single isomer, unassigned; (+)) [Example 72, (+)-1-(4-(1H-pyrazol-4-yl)phenyl)-3-(1-phenylethyl)-1H-imidazol-2(3H)-one], the IC50 lay within 2.1 to 20 nM.

`COc1cccc(CN2C(=O)N(c3ccc(-c4cn[nH]c4)cc3)CC2C(C)(C)O)c1` (single isomer, unassigned; (+)) [Example 45, (+)-1-(4-(1H-Pyrazol-4-yl)phenyl)-4-(2-hydroxypropan-2-yl)-3-(3-methoxybenzyl)imidazolidin-2-one] returned an IC50 of under 2 nM.

Regarding `COc1cc(F)cc(CN2C(=O)CN(c3ccc(-c4cn[nH]c4)c(OC)c3)C2=O)c1` [Example 101, 3-(3-fluoro-5-methoxybenzyl)-1-(3-methoxy-4-(1H-pyrazol-4-yl)phenyl) imidazolidine-2,4-dione], the IC50 lay within 2.1 to 20 nM.

`O=C1CN(c2ccc(-c3cn[nH]c3)cc2)C(=O)N1CCc1ccccc1` [Example 113, 1-(4-(1H-pyrazol-4-yl)phenyl)-3-phenethyl-imidazolidine-2,4-dione] came in with an IC50 of 20.1 to 200 nM.

As for `COc1cccc(CN2CCN(c3ccc(-c4cn[nH]c4)cn3)C2=O)c1` [Example 446, 1-(5-(1H-pyrazol-4-yl)pyridin-2-yl)-3-(3-methoxybenzyl)imidazolidin-2-one], the IC50 was in the range of 2.1 to 20 nM.

Regarding `COc1cccc(CN2C(=O)CN(c3ccc(-c4cn[nH]c4)c(OC)c3)C2=O)c1` [Example 105, 1-(3-methoxy-4-(1H-pyrazol-4-yl)phenyl)-3-(3-methoxy-benzyl)imidazolidine-2,4-dione], the IC50 was 2.1 to 20 nM.

In turn, `O=C1N(Cc2ccccc2)CCN1c1ccc(-c2cnoc2)cc1` [Example 60, 1-benzyl-3-(4-(isoxazol-4-yl)phenyl)imidazolidin-2-one] gave an IC50 of 20.1 to 200 nM.

`CCOc1cccc(C(C)n2ccn(-c3ccc(-c4cn[nH]c4)cc3)c2=O)c1` (single isomer, unassigned) [Example 368, 1-(4-(1H-pyrazol-4-yl)phenyl)-3-(1-(3-ethoxyphenyl)ethyl)-1H-imidazol-2(3H)-one]: the IC50 was in the range of 200 to 2000 nM.

The molecule `COc1cccc(CN2C(=O)CN(c3ccc(-c4cn[nH]c4)cc3)C2=O)c1` [Example 112, 1-(4-(1H-pyrazol-4-yl)phenyl)-3-(3-methoxybenzyl) imidazolidine-2,4-dione] registered an IC50 of under 2 nM.

`Cc1cc(N2CCN(Cc3cccc(OCC4CC4)c3)C2=O)ccc1-c1cn[nH]c1` [Example 284, 1-(3-(cyclopropylmethoxy)benzyl)-3-(3-methyl-4-(1H-pyrazol-4-yl)phenyl)imidazolidin-2-one] came in with an IC50 of 20.1 to 200 nM.

With `COc1nc(-n2ccn(Cc3cc(F)cc(OCC4CC4)c3)c2=O)ccc1-c1cn[nH]c1` [Example 395, 1-(3-(cyclopropylmethoxy)-5-fluorobenzyl)-3-(6-methoxy-5-(1H-pyrazol-4-yl)pyridin-2-yl)-1H-imidazol-2(3H)-one], the IC50 was 2.1 to 20 nM.

As for `COc1ccc(F)cc1Cn1ccn(-c2ccc(-c3cn[nH]c3)c(OC)n2)c1=O` [Example 374, 1-(5-fluoro-2-methoxybenzyl)-3-(6-methoxy-5-(1H-pyrazol-4-yl)pyridin-2-yl)-1H-imidazol-2(3H)-one], the IC50 is 2.1 to 20 nM.

The molecule `COc1nc(N2CCN(CC3CCCCC3)C2=O)ccc1-c1cn[nH]c1` [Example 227, 1-(cyclohexylmethyl)-3-(6-methoxy-5-(1H-pyrazol-4-yl)pyridin-2-yl)imidazolidin-2-one] gave an IC50 of 2.1 to 20 nM.

Take `COc1cccc(C(C(=O)O)N2CCN(c3ccc(-c4cn[nH]c4)cc3)C2=O)c1` (single isomer, unassigned) [Example 288, 2-(3-(4-(1H-Pyrazol-4-yl)phenyl)-2-oxoimidazolidin-1-yl)-2-(3-methoxyphenyl)acetic Acid]: the IC50 was in the range of 200 to 2000 nM.

In turn, `Cc1cc(F)ccc1Cn1ccn(-c2ccc(-c3cn[nH]c3)cc2)c1=O` [Example 403, 1-(4-(1H-pyrazol-4-yl)phenyl)-3-(4-fluoro-2-methylbenzyl)-1H-imidazol-2(3H)-one] returned an IC50 of 20.1 to 200 nM.

In turn, `COc1cccc(C(CC(C)(C)O)N2CCN(c3ccc(-c4cn[nH]c4)c(OC)c3)C2=O)c1` (stereo not drawn) [Example 22, 1-(3-Hydroxy-1-(3-methoxyphenyl)-3-methylbutyl)-3-(3-methoxy-4-(1H-pyrazol-4-yl)phenyl)imidazolidin-2-one] had an IC50 of 200 to 2000 nM.

`COc1nc(N2CCN(Cc3ccc(F)cc3C)C2=O)ccc1-c1cn[nH]c1` [Example 249, 1-(4-fluoro-2-methylbenzyl)-3-(6-methoxy-5-(1H-pyrazol-4-yl)pyridin-2-yl)imidazolidin-2-one] registered an IC50 of 20.1 to 200 nM.

Take `COc1cc(F)cc(Cn2ccn(-c3ccc(-c4cn[nH]c4)cc3)c2=O)c1` [Example 336, 1-(4-(1H-pyrazol-4-yl)phenyl)-3-(3-fluoro-5-methoxybenzyl)-1H-imidazol-2(3H)-one]: the IC50 was in the range of 2.1 to 20 nM.

Molecule `COc1cc(F)cc(CN2C(=O)CN(c3ccc(-c4cn[nH]c4)cc3)C2=O)c1` [Example 107, 1-(4-(1H-pyrazol-4-yl)phenyl)-3-(3-fluoro-5-methoxy-benzyl)imidazolidine-2,4-dione] came in with an IC50 of 2.1 to 20 nM.

As to `COc1cccc(C(CO)N2CCN(c3ccc(-c4cn[nH]c4)cn3)C2=O)c1` (stereo not drawn) [Example 442, 1-(5-(1H-pyrazol-4-yl)pyridin-2-yl)-3-(2-hydroxy-1-(3-methoxyphenyl)ethyl)imidazolidin-2-one], the IC50 lay in the range of 200 to 2000 nM.

In turn, `COc1cccc(C(CO)N2CCN(c3ccc(-c4cn[nH]c4)c(C)c3)C2=O)c1` (single isomer, unassigned) [Example 165, 1-(2-hydroxy-1-(3-methoxy-phenyl)ethyl)-3-(3-methyl-4-(1H-pyrazol-4-yl)phenyl) imidazolidin-2-one] showed an IC50 of 2.1 to 20 nM.

The molecule `COc1cccc(CN2C(=O)N(c3ccc(-c4cn[nH]c4)cc3)CC2C(C)(C)O)c1` (single isomer, unassigned) [Example 123, 1-(4-(1H-Pyrazol-4-yl)phenyl)-4-(2-hydroxypropan-2-yl)-3-(3-methoxybenzyl)imidazolidin-2-one] yielded an IC50 of under 2 nM.

`O=C1CN(c2ccc(-c3cn[nH]c3)cc2)C(=O)N1Cc1cc(F)ccc1F` [Example 115, 1-(4-(1H-pyrazol-4-yl)phenyl)-3-(2,5-difluorobenzyl) imidazolidine-2,4-dione] registered an IC50 of 20.1 to 200 nM.

Take `O=C1CN(Cc2ccccc2)C(=O)N1c1ccc(-c2cn[nH]c2)cc1` [Example 87, 3-(4-(1H-pyrazol-4-yl)phenyl)-1-benzylimidazolidine-2,4-dione]: the IC50 is 200 to 2000 nM.

With `CCc1nc(-n2ccn(Cc3cccc(OC)c3)c2=O)ccc1-c1cn[nH]c1` [Example 180, 1-(6-ethyl-5-(1H-pyrazol-4-yl)pyridin-2-yl)-3-(3-methoxy-benzyl)-1H-imidazol-2(3H)-one], the IC50 is under 2 nM.

The molecule `COc1cc(F)cc(C(C)N2CCN(c3ccc(-c4cn[nH]c4)cc3)C2=O)c1` (single isomer, unassigned) [Example 197, 1-(4-(1H-pyrazol-4-yl)-phenyl)-3-(1-(3-fluoro-5-methoxy-phenyl)ethyl) imidazolidin-2-one] returned an IC50 of under 2 nM.

With `Cc1nc(N2CCN(C(C)c3cccc(OCC4CC4)c3)C2=O)ccc1-c1cn[nH]c1` (single isomer, unassigned) [Example 204, 1-(1-(3-(cyclopropyl-methoxy)-phenyl)-ethyl)-3-(6-methyl-5-(1H-pyrazol-4-yl)pyridin-2-yl)-imidazolidin-2-one], the IC50 was in the range of 20.1 to 200 nM.
